Measured values: US20050106730A1, “Compositions and methods utilizing stable reporter cell lines for detection of pathway-specific signal transduction” (priority 1999, published 2005)

Key:
[1] = system: cAMP/CREB pathway (GAL4-CREB fusion); assay: Luciferase reporter assay in RCLH-CREB stable reporter cells treated with extracellular stimuli; assay type: cell-based, human; conditions: in the presence of 100 uM forskolin, 5 hours
[2] = system: MAPK pathway converging on Elk1 (GAL4-Elk1 fusion); assay: Luciferase reporter assay in RCLH-Elk1 stable reporter cells treated with extracellular stimuli; conditions: separate experiment

CCCCCCCCCCCCCC(=O)O[C@@H]1[C@@H](C)[C@@]2(O)[C@@H](C=C(CO)C[C@]3(O)C(=O)C(C)=C[C@@H]23)[C@@H]2C(C)(C)[C@]12OC(C)=O [PMA, phorbol 12-myristate 13-acetate]
Stimulation of luciferase expression [1]: approximately 70 fold

TGF-α: growth factor found to activate MAPK pathways
Activation of MAPK pathways [2]: also activates MAPK pathways
